Reference: US5434174A, “Isoxazole derivatives for the treatment of irritable bowel syndrome” (priority 1993, dated 1995)
pIC50: −log10 of the molar value. Counter-ions that a name gives are not always drawn. Like-named read-outs stand apart in the source and are kept apart here.

Experiments:
gastric secretion = conditions: intravenous infusion in humans; cited from earlier work
[1] = molecular target: T1, muscarinic (M1) receptors (Rattus norvegicus, UniProt P08482); test: In vitro [3H]-pirenzepine binding (muscarinic M1, rat cerebral cortical membranes); design: species or system rat (male Sprague-Dawley); conditions: for IC50: inhibition of 3H-pirenzepine binding, rat cerebral cortical membranes, read-out: Radioligand binding data (IC50, nM) M1
T1 construct: Cerebral cortical membranes were prepared by differential centrifugation; from tissue; host or cells: rat cerebral cortex membranes
T1 sequence (P08482 1-460): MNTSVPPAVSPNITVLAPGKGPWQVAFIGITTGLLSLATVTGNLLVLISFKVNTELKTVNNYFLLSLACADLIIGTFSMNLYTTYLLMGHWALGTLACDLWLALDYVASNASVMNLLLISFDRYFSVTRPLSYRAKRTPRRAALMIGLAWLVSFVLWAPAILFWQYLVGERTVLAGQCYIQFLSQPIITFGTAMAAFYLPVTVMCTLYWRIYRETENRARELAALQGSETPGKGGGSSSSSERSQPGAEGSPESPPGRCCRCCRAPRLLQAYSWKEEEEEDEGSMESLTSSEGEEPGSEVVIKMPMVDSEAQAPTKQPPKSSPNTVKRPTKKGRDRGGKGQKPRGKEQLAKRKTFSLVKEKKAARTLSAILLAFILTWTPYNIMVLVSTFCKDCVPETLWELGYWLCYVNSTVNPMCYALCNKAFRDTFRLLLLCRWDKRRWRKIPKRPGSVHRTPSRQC
Description: In vitro Binding Methods for [3H]-pirenzepine Binding
For in vitro 3H-pirenzepine binding, male Sprague-Dawley (Harlan Sprague Dawley, Indianapolis, Ind.) rats weighing 100-150 gm were sacrificed by decapitation, the brains were quickly removed, and the cerebral cortex was dissected from the brain. Cerebral cortical membranes were prepared by differential centrifugation, washed twice and frozen until used.
The inhibition of binding of 3H-pirenzepine to receptors was determined by adding study drug, 1 nM 3H-pirenzepine (87.0 Ci/mmol, New England Nuclear, Boston, Mass.), and about 100 ug cerebral cortical membranes in 1 ml total volume of 20 mM tris-Cl buffer, pH 7.4, containing 1 mM MnCl2. After incubation for 1 hour at 25° C., the homogenates were filtered through glass filters (Whatman, GF/c) with vacuum, the filters were washed 3 times with 2 ml cold buffer, and placed in scintillation vials containing 10 ml scintillation fluid (Ready Protein +, Beckman, Fullerton, Calif.).
Radioactivity trapped on the filters was determined by liquid, scintillation spectrometry. Nonspecific binding was determined using 1 uM atropine.
(§1) Table II summarizes the effect of typical formula I compounds on muscarinic (M1) receptors.

5HT1A receptors = molecular target: T2, 5HT1A receptors (Rattus norvegicus, UniProt P19327); test: In vitro binding to 5HT1A receptors (inhibition of 3H-8-OH-DPAT binding, rat cerebral cortex synaptosomal membranes); design: species or system rat (male Sprague-Dawley); conditions: for IC50: inhibition of 3H-8-OH-DPAT binding, rat cerebral cortex, read-out: Radioligand binding data (IC50, nM) 5-HT1a
T2 construct: synaptosomal membranes isolated from cerebral cortex; from tissue; host or cells: rat cerebral cortex, crude synaptosomal membranes
T2 sequence (P19327 1-422): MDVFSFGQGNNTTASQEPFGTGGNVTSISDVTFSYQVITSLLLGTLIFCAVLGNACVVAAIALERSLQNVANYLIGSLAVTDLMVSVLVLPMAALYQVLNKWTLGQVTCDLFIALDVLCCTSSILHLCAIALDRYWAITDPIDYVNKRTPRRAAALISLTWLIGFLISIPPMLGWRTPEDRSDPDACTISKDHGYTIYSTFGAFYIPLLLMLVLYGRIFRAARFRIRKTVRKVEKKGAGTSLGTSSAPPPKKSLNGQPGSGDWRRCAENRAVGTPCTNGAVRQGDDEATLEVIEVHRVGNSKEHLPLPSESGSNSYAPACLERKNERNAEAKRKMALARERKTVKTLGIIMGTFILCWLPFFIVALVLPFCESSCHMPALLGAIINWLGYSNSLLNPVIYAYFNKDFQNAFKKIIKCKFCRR
Source text: Sites specifically labeled by tritiated 8-hydroxy-2-dipropylamino-1,2,3,4-tetrahydronaphthalene (^3 H-8-OH-DPAT) have been identified as 5-HT1A receptors. This general procedure is set forth in Wong et al., J. Neural Transm. 71: 207-218 (1988).
In vitro Binding Methods to 5HT1A Receptors
Male Sprague-Dawley rats (110-150 g) from Harlan Industries (Cumberland, Ind.) were fed Purina Chow ad libitum for at least 3 days before being used in the studies. Rats were killed by decapitation. The brains were rapidly removed, and the cerebral cortices were dissected out at 4° C.
Brain tissues were homogenized in 0.32M sucrose. After centrifugation at 1000× g for 10 min. and then at 17000× g for 20 min., a crude synaptosomal fraction was sedimented. The pellet was suspended in 100 vol. of 50 mM Tris-HCl, pH 7.4, incubated at 37° C. for 10 min., and centrifuged at 50000× g for 10 min. The process was repeated and the final pellet was suspended in ice-chilled 50 mM Tris-HCl, pH 7.4.
Binding of ^3 H-8-OH-DPAT was performed according to the previously described method [Wong et al., J. Neural Transm. 64: 251-269 (1985)]. Briefly, synaptosomal membranes isolated from cerebral cortex were incubated at 37° C. for 10 min. in 2 ml of 50 mM Tris-HCl, pH 7.4; […]; 0.6 mM ascorbic acid; 5 mM CaCl2; 2 nM 3H-8-OH-DPATand 0.1 to 1000 nm of the compound of interest. Binding was terminated by filtering samples under reduced pressure through glass fiber (GFB) filters. The filters were washed twice with 5 ml of ice cold buffer and placed in scintillation vials with 10 ml of PCS (Amersham/Searle) scintillation fluid. Radioactivity was measured with a liquid scintillation spectrometer. Unlabeled 8-OH-DPAT at […] was also included in separate samples to establish non-specific binding. Specific binding of ^3 H-8-OH-DPAT is defined as the difference of radioactivity bound in the absence and in the presence of 10 μM unlabeled 8-OH-DPAT.
(§2) The results in columns 6-8 are indicative of 5-HT1A agonist activity.

brain 5-HIAA levels = test: In vivo lowering of brain 5-HIAA levels; design: species or system rat (male Sprague-Dawley); conditions: Rattus norvegicus, 1 h, minimum effective dose lowering brain 5-HIAA, one hour after treatment, read-out: 5-HIAA MED
Description: (§3) In vivo Methods to Show 5HT1A Activity
(§4) Compounds of this invention were also examined for their in vivo effects on brain 5-HIAA and serum corticosterone levels. Male Sprague-Dawley rats weighing 150-200 g were administered subcutaneously or orally with aqueous solutions of the test compound. One hour after treatment, the rats were decapitated and trunk blood collected. The blood was allowed to clot and then was centrifuged to separate the serum. The concentration of corticosterone in the serum was determined by the spectrofluorometric method of Solem, J. H.; Brinck-Johnsen, T., Scand. J. Clin. Invest, [Suppl. 80], 17, 1 (1965). The whole brains from the decapitated rats were quickly removed, frozen on dry ice, and stored at -15° C. 5-HIAA concentrations were measured by liquid chromatography with electrochemical detection as described by Fuller, R. W.; Snoddy, H. D.; Perry, K. W., Life Sci. 40, 1921 (1987).
as §2

[2] = test system: rat colon (carbachol-induced contraction); test: Reversal of carbachol-induced hypertone (contraction of rat colon strips in vitro); design: species or system rat (male Sprague-Dawley); conditions: colonic smooth muscle in vitro, read-out: Blockade of carbachol-induced contraction of rat colon (IC50)
Description: Reversal of Carbachol-Induced Hypertone
Male Spraque-Dawley rats weighing 300-350 gm were starved for 24 hours. The rats were brought to the lab and decapitated and colons were removed immediately. Fecal content was washed and longitudinal strips 4 cm long were placed in organ baths under 1 gm tension using Grass FT03 transducers. Tissues were allowed to equilibrate and were gassed with 95% oxygen and 5% carbon dioxide. The tissues were then contracted with carbachol to produce a tonic response. Then the drug solutions were added to see relaxation. Percent relaxation was calculated from the pre-treatment control period. For many compounds more than one concentration of the drug was tested. In these situations an IC50 was calculated, which is the dose which inhibited carbachol induced response by 50%.
as §1

[3] = test system: pylorus ligated rats (gastric acid secretion); type: in vivo, rat (male Sprague-Dawley); conditions: 2 h
Description: Gastric acid inhibition was determined in pylorus ligated rats following the procedure by Shay (Shay, H., Komarov, A. A. and Greenstein, M: Effects of vagotomy in the rat, Arch. Surg. 59: 210-226, 1949). Male Sprague-Dawley rats weighing approximately 200 gm were starved 24 hours prior to using. Water was provided ad libitrim. Under light ether anesthesia the pylorus was ligated and simultaneously the rats were dosed with the compound either i.p. or s.c. and the rats were allowed to recover from anesthetic. Acid was accumulated for 2 hours. At the end of this period, rats were killed. Stomach contents were removed, measured and titrated to a pH endpoint of 7.0.
as §2

[4] = test system: serum corticosterone levels; test: In vivo elevation of serum corticosterone levels; design: species or system rat (male Sprague-Dawley); conditions: Rattus norvegicus, sc, 1 h, read-out: Corticosterone MED
Description: as §3, §4, §2

Row | SMILES | effect on production of mucus (gastric secretion) | effect on volume and acidity of spontaneous and histamine-induced gastric secretion (gastric secretion) | IC50 [1] | IC50 (5HT1A receptors) | minimal effective dose (brain 5-HIAA levels; po) | pIC50 [2] | Gastric Acid Inhibition % [3] | pIC50 (5HT1A receptors) | minimal effective dose (brain 5-HIAA levels; sc) | minimal effective dose [4] | pIC50 [1] | minimal effective dose ([4]; minimum effective dose elevating serum corticosterone, one hour after treatment)
1 | N[C@@H](Cc1c[nH]c2ccc(O)cc12)C(=O)O [Example 5-HTP, 5-hydroxytryptophane] | increasing the production of mucus | inhibits the volume and acidity of both spontaneous and histamine-induced gastric secretion |  |  |  |  |  |  |  |  |  | 
2 | CCCN(CCC)C1CCc2cccc(-c3cc(-c4ccccc4)no3)c2C1 (stereo not drawn) [Example 6, 2-(Di-n-propylamino)-8-(3-phenylisoxazol-5-yl)-1,2,3,4-tetrahydronaphthalene hydrobromide] |  |  | 750 nM | 72 nM |  |  |  |  |  |  |  | 
3 | CCCN(CCC)[C@H]1CCc2cccc(-c3ccno3)c2C1 [Example 9, S-(-)-8-(isoxazol-5-yl)-2-dipropylamino-1,2,3,4-tetrahydronaphthalene maleate] |  |  | 180 nM |  | 3 mg/kg | 5.60 | 96.8% | 9.70 |  |  |  | 
4 | NCCc1c[nH]c2ccc(O)cc12 [Example 5-HT, 5-hydroxytryptamine] | increasing the production of mucus | inhibits the volume and acidity of both spontaneous and histamine-induced gastric secretion |  |  |  |  |  |  |  |  |  | 
5 | CCCN(CCC)C1CCc2cccc(-c3cc(Br)no3)c2C1.O=C(O)/C=C\C(=O)O (stereo not drawn) [Example 2, 2-(Di-n-propylamino)-8-(3-bromoisoxazol-5-yl)-1,2,3,4-tetrahydronaphthalene maleate] |  |  |  | 2.5 nM |  | 5.34 |  |  | > 1 mg/kg | > 1 mg/kg | 6.66 | 
6 | CCCN(CCC)C1CCc2cccc(O)c2C1 (stereo not drawn) [8-OH DPAT, 8-hydroxy-2-dipropylamino-1,2,3,4-tetrahydronaphthalene, reference compound] |  |  |  |  |  | 4.53 | 72.4% |  |  |  | 5.71 | 
7 | CCCN(CCC)C1CCc2cccc(-c3ccno3)c2C1.O=C(O)/C=C\C(=O)O (stereo not drawn) [Example 1, 2-(Di-n-propylamino)-8-(isoxazol-5-yl)-1,2,3,4-tetrahydronaphthalene maleate] |  |  |  | 0.44 nM | 3 mg/kg | 5.09 | 69.6% |  | 0.1 mg/kg | 0.3 mg/kg |  | 
8 | CCCN(CCC)C1CCc2cccc(-c3cc(SC)no3)c2C1 (stereo not drawn) [Example 7, 2-(Di-n-propylamino)-8-(3-methylthioisoxazol-5-yl)-1,2,3,4-tetrahydronaphthalene maleate] |  |  | 173 nM |  |  |  | 65.4% | 8.92 | > 1 mg/kg |  |  | > 1 mg/kg
9 | CCCN(CCC)[C@@H]1CCc2cccc(-c3ccno3)c2C1.O=C(O)/C=C\C(=O)O [Example 10, R-(+)-8-(isoxazol-5-yl)-2-dipropylamino-1,2,3,4-tetrahydronaphthalene maleate] |  |  |  | 1.4 nM | 10 mg/kg | 5.04 | 47.1% |  |  |  | 6.82 | 
10 | CCCN(CCC)C1CCc2cccc(-c3cc(C)no3)c2C1.O=C(O)/C=C\C(=O)O (stereo not drawn) [Example 5, 2-(Di-n-propylamino)-8-(3-methylisoxazol-5-yl)-1,2,3,4-tetrahydronaphthalene maleate] |  |  |  | 1.3 nM |  |  | 95.8% |  | 1 mg/kg | > 1 mg/kg | 6.97 | 
11 | Br.CCCN(CCC)C1CCc2cccc(-c3oncc3OC)c2C1 (stereo not drawn) [Example 8, 2-(Di-n-propylamino)-8-(4-methoxyisoxazol-5-yl)-1,2,3,4-tetrahydronaphthalene hydrobromide] |  |  |  | 1.7 nM |  |  | 46.8% |  | 1 mg/kg | > 1 mg/kg | 6.71 | 
12 | CCCN(CCC)C1CCc2cccc(-c3oncc3C)c2C1.O=C(O)/C=C\C(=O)O (stereo not drawn) [Example 3, 2-(Di-n-propylamino)-8-(4-methylisoxazol-5-yl)-1,2,3,4-tetrahydronaphthalene maleate] |  |  |  | 1.9 nM | > 10 mg/kg |  | 95.7% |  | 0.3 mg/kg | 1 mg/kg | 6.72 | 
